The experiment has as its system HCV RNA replication. Briefly: Luciferase assay of HCV RNA replication (Table 3). Particulars: Hepatitis C virus, read-out: Residual Luciferase activity.

Molecules are shown by their SMILES. Bounds are passed on as bounds.

Among the data in patent US8940730B2, “Methods and compositions of treating a Flaviviridae family viral infection” (The Board of Trustees of the Leland Stanford Junior …, priority 2007, dated 2015) are activity values, retold here.

As for `Cc1ccc2c(c1)c(OCCN1CCCC1)nn2Cc1ccccc1` [Compound 196], the activity at 5 µM was 55 to 80% and the activity at 10 µM lay within 20 to 54%.
For `Oc1nn(Cc2ccccc2)c2ccccc12` [Compound 189], the activity at 5 µM is > 80% and the activity at 10 µM was > 80%.
With `O=[N+]([O-])c1cc2cn(Cc3ccc(Cl)cc3)nc2cc1Cl` [Compound 209], the activity at 5 µM is > 80% and the activity at 10 µM is > 80%.
On to `Cc1ccc2c(c1)c(OCCN1CCCCC1)nn2Cc1ccccc1.Cl` [Compound 191], for which the activity at 5 µM lay in the range of 55 to 80% and the activity at 10 µM is < 20%.
For `Cc1ccc2c(c1)c(OCCCN(C)C)nn2Cc1ccccc1` [Compound 187], in that order: 55 to 80% and 20 to 54%.
For `CN(C)CCOc1nn(Cc2ccccc2)c2ccccc12` [Compound 195], the activity at 5 µM is > 80% and the activity at 10 µM was > 80%.
In the case of `Cl.c1ccc(Cn2nc(OCCCN3CCCC3)c3ccccc32)cc1` [Compound 192], the activity at 5 µM was 55 to 80% and the activity at 10 µM was 20 to 54%.
With `FC(F)(F)c1ccc2cn(Cc3ccc(Cl)cc3)nc2c1` [Compound 212], the activity at 5 µM is 55 to 80% and the activity at 10 µM was in the range of 20 to 54%.
For the compound `Cc1ccc2c(c1)c(OCCCN1CCCCC1)nn2Cc1ccccc1` [Compound 199], the activity at 5 µM lay within 20 to 54% and the activity at 10 µM was < 20%.
On to `Cc1cc2nn(Cc3ccc(Cl)cc3)cc2cc1[N+](=O)[O-]` [Compound 210], for which the activity at 5 µM lay within 20 to 54% and the activity at 10 µM was in the range of 20 to 54%.
As for `Cc1ccc2c(c1)c(O)nn2Cc1ccccc1` [Compound 188], the activity at 5 µM was > 80% and the activity at 10 µM was in the range of 20 to 54%.
As to `Cc1cc2c(cnn2Cc2ccc(Cl)cc2)cc1[N+](=O)[O-]` [Compound 204], the activity at 5 µM fell in the range of 55 to 80% and the activity at 10 µM fell in the range of 20 to 54%.
Take `Cc1cc2cnn(Cc3ccc(Cl)cc3)c2cc1Br` [Compound 201]: the activity at 5 µM is > 80% and the activity at 10 µM fell in the range of 55 to 80%.
For `c1ccc(Cn2ncc3ccccc32)cc1` [Compound 185], in that order: > 80% and > 80%.
For the compound `Cc1cc2nn(Cc3ccc(Cl)cc3)cc2cc1Cl` [Compound 206], the activity at 5 µM is > 80% and the activity at 10 µM was 55 to 80%.
Regarding `Cl.c1ccc(Cn2nc(OCCN3CCCC3)c3ccccc32)cc1` [Compound 194], the activity at 5 µM was > 80% and the activity at 10 µM lay within 55 to 80%.
With `Clc1ccc(Cn2ncc3cc(Br)ccc32)cc1` [Compound 205], the activity at 5 µM was > 80% and the activity at 10 µM fell in the range of 55 to 80%.
For `CN(C)CCCOc1nn(Cc2ccccc2)c2ccccc12` [Compound 184], in that order: > 80% and 20 to 54%.
The like results for `Cc1cc2c(cnn2Cc2ccc(Cl)cc2)cc1Cl` [Compound 200] were, in that order, > 80% and 55 to 80%.
The like results for `O=[N+]([O-])c1cc2cnn(Cc3ccc(Cl)cc3)c2cc1Cl` [Compound 203] were, in that order, > 80% and 20 to 54%.
Take `Cc1cc2c(cnn2Cc2ccc(Cl)cc2)cc1Br` [Compound 202]: the activity at 5 µM is > 80% and the activity at 10 µM was > 80%.
As for `Brc1ccc(Cn2ncc3ccccc32)cc1` [Compound 186], the activity at 5 µM is > 80% and the activity at 10 µM was > 80%.
Turning to `Cc1ccc2c(c1)c(OCCN(C)C)nn2Cc1ccccc1` [Compound 197], the activity at 5 µM is > 80% and the activity at 10 µM is 20 to 54%.
Consider `c1ccc(Cn2nc(OCCCN3CCCCC3)c3ccccc32)cc1` [Compound 198], for which the activity at 5 µM lay in the range of 20 to 54% and the activity at 10 µM was < 20%.
On to `Cc1ccc2c(c1)c(OCCCN1CCCC1)nn2Cc1ccccc1` [Compound 193], for which the activity at 5 µM lay within 20 to 54% and the activity at 10 µM is < 20%.
